Measured values published in patent publication US20250099557A1, “ANTIBIOTIC PHARMACEUTICAL COMPOSITION CAPABLE OF SUBCUTANEOUS ADMINISTRATION” (SHANGHAI BAO PHARMACEUTICALS CO., LTD., priority 2021, published 2025).

Columns and labels:
[1] = target: T1, HAase (Homo sapiens, UniProt P38567); test: Compatibility study of HAase and antibiotic in solution: HAase activity; format: biochemical; details: 15 min room temperature; for Final concentration of HAase (units/ml) 150: HAase added to 150 units/ml; for Final concentration of HAase (units/ml) 500: HAase added to 500 units/ml; for Final concentration of HAase (units/ml) 2000: HAase added to 2000 units/ml; for Final concentration of HAase (units/ml) 6000: HAase added to 6000 units/ml; for interference with the activity of HAase: antibiotic and HAase in physiological saline
T1 construct: made in house
T1 sequence (P38567 36-482): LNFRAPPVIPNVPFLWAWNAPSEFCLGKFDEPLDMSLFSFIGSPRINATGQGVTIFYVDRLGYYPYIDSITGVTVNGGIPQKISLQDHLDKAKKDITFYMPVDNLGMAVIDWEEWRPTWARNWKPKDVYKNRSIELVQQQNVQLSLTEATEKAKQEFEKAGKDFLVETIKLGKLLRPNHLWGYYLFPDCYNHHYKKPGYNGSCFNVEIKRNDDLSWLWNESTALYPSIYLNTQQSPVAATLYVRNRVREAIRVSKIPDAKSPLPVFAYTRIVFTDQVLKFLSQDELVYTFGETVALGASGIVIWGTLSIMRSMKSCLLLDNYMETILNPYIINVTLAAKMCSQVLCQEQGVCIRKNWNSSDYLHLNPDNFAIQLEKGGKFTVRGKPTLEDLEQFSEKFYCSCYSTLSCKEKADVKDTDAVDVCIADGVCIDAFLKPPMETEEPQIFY
Method: “HAase activity refers to the ability of HAase to catalytically cleave hyaluronic acid. The Chinese Pharmacopoeia provides a method for determining the HAase activity, indirectly by measuring the amount of remaining higher-molecular-weight hyaluronic acid substrate after the enzyme is allowed to catalytically cleave hyaluronic acid at 37° C. for 30 min. A standard reference solution can be used in the assay to determine the relative activity (in units) of any HAase. In-vitro assays for the determination of HAase are known in the art. Exemplary assays include micro-turbidimetric assay described below, which indirectly measures the cleavage of hyaluronic acid by HAase by detecting an insoluble precipitate formed when uncleaved hyaluronic acid binds to serum albumin. The reference standard can be used, for example, to generate a standard curve, so as to determine the activity of the tested HAase in units.
(§1) The compatibility of HAase and an antibiotic was studied by preparing a solution comprising the two substances. A dry Meropenem power for injection was dissolved in physiological saline to give a concentration of 5 mg/ml and 50 mg/ml, and then HAase was added to give a final concentration of 150, 500, 2000, and 6000 units/ml respectively. After preparation, the solution was left to stand at room temperature for 15 min. The appearance of the solution was observed, and the concentration of HAase was determined.
as §1, with “dry Ceftriaxone sodium” for “dry Meropenem”, “of 50” for “of 5”, “and 250” for “and 50”
as §1, with “dry Azithromycin” for “dry Meropenem”, “of 10” for “of 5”, “and 100” for “and 50”
as §1, with “dry Cefradine powder” for “dry Meropenem power”, “of 50” for “of 5”, “and 250” for “and 50”
as §1, with “dry Teicoplanin powder” for “dry Meropenem power”, “of 10” for “of 5”, “and 70” for “and 50”
as §1, with “dry Ceftazidime powder” for “dry Meropenem power”, “of 20” for “of 5”, “and 200” for “and 50”, “min.” for “min. The appearance of the solution was observed, and the concentration of HAase was determined.”

[2] = Compatibility study of HAase and antibiotic in solution: appearance of the solution; format: physicochemical; details: 8 solutions of antibiotic (two concentrations) with HAase 150-6000 units/ml in physiological saline
Method: as §1
as §1, with “dry Ceftriaxone sodium” for “dry Meropenem”, “of 50” for “of 5”, “and 250” for “and 50”
as §1, with “dry Azithromycin” for “dry Meropenem”, “of 10” for “of 5”, “and 100” for “and 50”
as §1, with “dry Cefradine powder” for “dry Meropenem power”, “of 50” for “of 5”, “and 250” for “and 50”
as §1, with “dry Teicoplanin powder” for “dry Meropenem power”, “of 10” for “of 5”, “and 70” for “and 50”
as §1, with “dry Ceftazidime powder” for “dry Meropenem power”, “of 20” for “of 5”, “and 200” for “and 50”
as §1, with “dry Ertapenem” for “dry Meropenem”, “of 30” for “of 5”, “and 300” for “and 50”
The compatibility of HAase and an antibiotic was studied by preparing a solution comprising the two substances. A dry Polymyxin B powder for injection was dissolved in physiological saline to give a concentration of 50,000 units/ml and 250,000 units/ml, and then HAase was added to give a final concentration of 150, 500, 2000, and 6000 units/ml respectively.

[3] = target: T1, HAase; test: Compatibility study of HAase and antibiotic in solution: HAase activity; format: biochemical; details: antibiotic 50,000 units/ml in physiological saline; HAase added to 150 units/ml; 15 min room temperature
[4] = antibiotic 10 mg/ml in physiological saline
[5] = antibiotic 100 mg/ml in physiological saline
[6] = antibiotic 5 mg/ml in physiological saline
[7] = antibiotic 50 mg/ml in physiological saline
[8] = antibiotic 50,000 units/ml in physiological saline
[9] = antibiotic 250,000 units/ml in physiological saline

CC[C@H]1OC(=O)[C@H](C)[C@@H](O[C@H]2C[C@@](C)(OC)[C@@H](O)[C@H](C)O2)[C@H](C)[C@@H](O[C@@H]2O[C@H](C)C[C@H](N(C)C)[C@H]2O)[C@](C)(O)C[C@@H](C)CN(C)[C@H](C)[C@@H](O)[C@]1(C)O [Azithromycin]
Final concentration of HAase (units/ml) 150 [1, 4]: 152 units/ml
Final concentration of HAase (units/ml) 500 [1, 4]: 482 units/ml
Final concentration of HAase (units/ml) 2000 [1, 4]: 1651 units/ml
Final concentration of HAase (units/ml) 6000 [1, 4]: 6140 units/ml
Final concentration of HAase (units/ml) 150 [1, 5]: 140 units/ml
Final concentration of HAase (units/ml) 500 [1, 5]: 500 units/ml
Final concentration of HAase (units/ml) 2000 [1, 5]: 1760 units/ml
Final concentration of HAase (units/ml) 6000 [1, 5]: 5818 units/ml
interference with the activity of HAase [1]: does not interfere with the activity of HAase
appearance of the solution [2]: clear and transparent

C[C@@H](O)[C@H]1C(=O)N2C(C(=O)O)=C(S[C@@H]3CN[C@H](C(=O)N(C)C)C3)[C@H](C)[C@H]12 [Meropenem]
Final concentration of HAase (units/ml) 150 [1, 6]: 150 units/ml
Final concentration of HAase (units/ml) 500 [1, 6]: 511 units/ml
Final concentration of HAase (units/ml) 2000 [1, 6]: 1979 units/ml
Final concentration of HAase (units/ml) 6000 [1, 6]: 6271 units/ml
Final concentration of HAase (units/ml) 150 [1, 7]: 145 units/ml
Final concentration of HAase (units/ml) 500 [1, 7]: 491 units/ml
Final concentration of HAase (units/ml) 2000 [1, 7]: 1984 units/ml
Final concentration of HAase (units/ml) 6000 [1, 7]: 6121 units/ml
interference with the activity of HAase [1]: does not interfere with the activity of HAase
appearance of the solution [2]: clear and transparent

Polymyxin B
Final concentration of HAase (units/ml) 500 [1, 8]: 488 units/ml
Final concentration of HAase (units/ml) 2000 [1, 8]: 2126 units/ml
Final concentration of HAase (units/ml) 6000 [1, 8]: 5899 units/ml
Final concentration of HAase (units/ml) 150 [1, 9]: 151 units/ml
Final concentration of HAase (units/ml) 500 [1, 9]: 501 units/ml
Final concentration of HAase (units/ml) 2000 [1, 9]: 2014 units/ml
Final concentration of HAase (units/ml) 6000 [1, 9]: 6090 units/ml
interference with the activity of HAase [1]: does not interfere with the activity of HAase
Final concentration of HAase (units/ml) 150 [3]: 149 units/ml
appearance of the solution [2]: clear and transparent
